The source of these data is patent US20080318792A1, “Extension of pollination period” (priority 2007, published 2008).

The test system of the test is Hughes 1883 hybrid corn seed. Kind of test: Soil germination/emergence of corn seed treated with different forms of ABA in slurry. Format: in vivo. The conditions noted are these: 25 g/cwt as free acid. The protocol: Three forms of ABA were evaluated in this experiment 1) free acid, 2) ammonium salt, and 3) sodium salt. The cation is referred to as the “counter-ion” below. […] The treatments were made up in 3 ml samples of experimental aqueous seed treatment slurry. All of the seed treatment slurry samples contained CF-Clear film-forming agent and Colorcoat Red (Becker Underwood), each at 1 oz/cwt, and 0.167 oz/cwt Maxim XL fungicide (Syngenta). The slurry application volume was 20 oz/cwt (cwt=100 lbs of seed).
One hundred gram samples of Hughes 1883 hybrid corn seed were treated with the experimental slurries using a Hege 11 seed treater with a six-inch bowl.
The seed was planted in plastic boxes containing 1 kg of typical agricultural silt loam. Fifty seeds were planted 3 cm deep in each plastic box, and the soil in the box was adjusted to 21% soil moisture (wet-weight basis). Two replications of the experiment were incubated under constant light in a 25° C. chamber and two replications incubated under constant light in an 18° C. chamber. The boxes were watered up to the correct weight daily, and checked for emergence. Daily counts of seedlings were continued until emergence ceased. The final count of emerged seedlings was expressed as a percentage of the 50 seeds planted (GERM).
The daily counts were converted to proportions of the final germination of the box, and a Gompertz curve was fitted to the data from each box using SAS Proc NLIN. From the parameters of the model, median germination time (T50) and quartile range (QR) were estimated for each box. Analysis of variance was performed and means calculated for each of the three responses (GERM, T50, QR).

Counter-ions that a name gives are not always drawn.

With `CC1=CC(=O)CC(C)(C)[C@@]1(O)/C=C/C(C)=C\C(=O)O` [ABA ammonium salt], for the setting “soil 18° C.”, the Final emergence turned out to be 91%, the QR amounted to 3.52 days and the T50 is given as 11.2 days. Also, under “soil 25° C.”, the Final emergence is listed as 91%, the QR is 1.34 days and the T50 is listed as 7.4 days.

Where the note is “soil 18° C.”, `CC1=CC(=O)CC(C)(C)[C@@]1(O)/C=C/C(C)=C\C(=O)[O-].[Na+]` [ABA sodium salt] returned a Final emergence of 92%, a QR of 3.36 days and a T50 of 10.9 days. For the setting “soil 25° C.”, this compound gave a Final emergence of 92%, a QR of 1.31 days and a T50 of 7.1 days.
